# Measured values taken from PubChem BioAssay (NCI).
#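 Values below derive from 48-hour exposures of cells grown in 96-well plates, with endpoints linearly interpolated between the two concentrations bracketing the appropriate inhibition level. GI50 = concentration required for 50% inhibition of growth. Definition used: TGI = concentration required for complete inhibition of growth.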
# Assays:
# Assay in all cases: inhibition of tumour cell growth, NCI panel, 48 h
# PC-3 prostate = system: PC-3 prostate
# HT29 colon = system: HT29 colon
# TK-10 renal = system: TK-10 renal
# COLO 205 colon = system: COLO 205 colon
# SK-MEL-2 melanoma = system: SK-MEL-2 melanoma
# CCRF-CEM leukemia = system: CCRF-CEM leukemia
# BT-549 breast = system: BT-549 breast
# U251 CNS = system: U251 CNS
# 786-0 renal = system: 786-0 renal
# MDA-MB-435 = system: MDA-MB-435
# SW-620 colon = system: SW-620 colon
# NCI-H460 lung = system: NCI-H460 lung
# KM12 colon = system: KM12 colon
# MDA-MB-231 breast = system: MDA-MB-231 breast
# A549 NSCLC = system: A549 NSCLC
# LOX IMVI melanoma = system: LOX IMVI melanoma
# SNB-19 CNS = system: SNB-19 CNS
# UO-31 renal = system: UO-31 renal
# MALME-3M melanoma = system: MALME-3M melanoma
# CAKI-1 renal = system: CAKI-1 renal
# SK-MEL-28 melanoma = system: SK-MEL-28 melanoma
# NCI-H226 lung = system: NCI-H226 lung
# HCT-15 colon = system: HCT-15 colon
# RPMI-8226 leukemia = system: RPMI-8226 leukemia
# K-562 leukemia = system: K-562 leukemia
# IGROV1 ovarian = system: IGROV1 ovarian
# HOP-92 NSCLC = system: HOP-92 NSCLC
# A498 renal = system: A498 renal
# HCC-2998 colon = system: HCC-2998 colon
# UACC-62 melanoma = system: UACC-62 melanoma
# M14 melanoma = system: M14 melanoma
# NCI/ADR-RES ovarian = system: NCI/ADR-RES ovarian
# SF-539 CNS = system: SF-539 CNS
# NCI-H23 lung = system: NCI-H23 lung
# SF-268 CNS = system: SF-268 CNS
# SK-OV-3 ovarian = system: SK-OV-3 ovarian
# RXF 393 renal = system: RXF 393 renal
# OVCAR-4 ovarian = system: OVCAR-4 ovarian
# OVCAR-8 ovarian = system: OVCAR-8 ovarian
# SF-295 CNS = system: SF-295 CNS
# HOP-62 NSCLC = system: HOP-62 NSCLC
# OVCAR-3 ovarian = system: OVCAR-3 ovarian
# SK-MEL-5 melanoma = system: SK-MEL-5 melanoma
# OVCAR-5 ovarian = system: OVCAR-5 ovarian
# NCI-H522 lung = system: NCI-H522 lung
# DU-145 prostate = system: DU-145 prostate
# SN12C renal = system: SN12C renal
# MOLT-4 leukemia = system: MOLT-4 leukemia
# UACC-257 melanoma = system: UACC-257 melanoma
# HL-60(TB) leukemia = system: HL-60(TB) leukemia
# SR leukemia = system: SR leukemia
# MCF7 breast = system: MCF7 breast
# HCT-116 colon = system: HCT-116 colon
# T-47D breast = system: T-47D breast
# ACHN renal = system: ACHN renal
# EKVX NSCLC = system: EKVX NSCLC
# SNB-75 CNS = system: SNB-75 CNS
# HS 578T breast = system: HS 578T breast
compound,measurement,setting,value
COc1ccc(OC)c(/C=C2\COc3ccc(O)c(O)c3C2=O)c1,GI50,PC-3 prostate,1.82 µM
same,TGI,PC-3 prostate,6.82 µM
same,GI50,HT29 colon,2.68 µM
same,TGI,HT29 colon,6.6 µM
same,GI50,TK-10 renal,4 µM
same,TGI,TK-10 renal,14.3 µM
same,GI50,COLO 205 colon,3.22 µM
same,TGI,COLO 205 colon,9.51 µM
same,GI50,SK-MEL-2 melanoma,2.84 µM
same,TGI,SK-MEL-2 melanoma,8.44 µM
same,GI50,CCRF-CEM leukemia,0.679 µM
same,TGI,CCRF-CEM leukemia,34.4 µM
same,GI50,BT-549 breast,1.71 µM
same,TGI,BT-549 breast,6.71 µM
same,GI50,U251 CNS,2.21 µM
same,TGI,U251 CNS,10.5 µM
same,GI50,786-0 renal,2.28 µM
same,TGI,786-0 renal,7.12 µM
same,GI50,MDA-MB-435,1.97 µM
same,TGI,MDA-MB-435,5.48 µM
same,GI50,SW-620 colon,2.22 µM
same,TGI,SW-620 colon,5.98 µM
same,GI50,NCI-H460 lung,2.07 µM
same,TGI,NCI-H460 lung,5.61 µM
same,GI50,KM12 colon,1.73 µM
same,TGI,KM12 colon,3.92 µM
same,GI50,MDA-MB-231 breast,2.74 µM
same,TGI,MDA-MB-231 breast,11.8 µM
same,GI50,A549 NSCLC,3.07 µM
same,TGI,A549 NSCLC,11.9 µM
same,GI50,LOX IMVI melanoma,1.48 µM
same,TGI,LOX IMVI melanoma,3.02 µM
same,GI50,SNB-19 CNS,3.09 µM
same,TGI,SNB-19 CNS,11.1 µM
same,GI50,UO-31 renal,1.22 µM
same,TGI,UO-31 renal,2.6 µM
same,GI50,MALME-3M melanoma,2.1 µM
same,TGI,MALME-3M melanoma,6.58 µM
same,GI50,CAKI-1 renal,2.08 µM
same,TGI,CAKI-1 renal,5.73 µM
same,GI50,SK-MEL-28 melanoma,2.65 µM
same,TGI,SK-MEL-28 melanoma,7.51 µM
same,GI50,NCI-H226 lung,6.76 µM
same,TGI,NCI-H226 lung,36.8 µM
same,GI50,HCT-15 colon,1.3 µM
same,TGI,HCT-15 colon,6.5 µM
same,GI50,RPMI-8226 leukemia,0.751 µM
same,TGI,RPMI-8226 leukemia,6.12 µM
same,GI50,K-562 leukemia,2.17 µM
same,TGI,K-562 leukemia,> 100 µM
same,GI50,IGROV1 ovarian,2.31 µM
same,TGI,IGROV1 ovarian,6.68 µM
same,GI50,HOP-92 NSCLC,2.8 µM
same,TGI,HOP-92 NSCLC,8.86 µM
same,GI50,A498 renal,11.2 µM
same,TGI,A498 renal,23.6 µM
same,GI50,HCC-2998 colon,1.88 µM
same,TGI,HCC-2998 colon,3.48 µM
same,GI50,UACC-62 melanoma,1.79 µM
same,TGI,UACC-62 melanoma,4.51 µM
same,GI50,M14 melanoma,2.09 µM
same,TGI,M14 melanoma,6.9 µM
same,GI50,NCI/ADR-RES ovarian,2.51 µM
same,TGI,NCI/ADR-RES ovarian,10.9 µM
same,GI50,SF-539 CNS,2.23 µM
same,TGI,SF-539 CNS,5.19 µM
same,GI50,NCI-H23 lung,2.44 µM
same,TGI,NCI-H23 lung,7.3 µM
same,GI50,SF-268 CNS,2.19 µM
same,TGI,SF-268 CNS,10.8 µM
same,GI50,SK-OV-3 ovarian,6.94 µM
same,TGI,SK-OV-3 ovarian,22.5 µM
same,GI50,RXF 393 renal,1.83 µM
same,TGI,RXF 393 renal,3.58 µM
same,GI50,OVCAR-4 ovarian,2.58 µM
same,TGI,OVCAR-4 ovarian,14.5 µM
same,GI50,OVCAR-8 ovarian,3.05 µM
same,TGI,OVCAR-8 ovarian,27 µM
same,GI50,SF-295 CNS,4.29 µM
same,TGI,SF-295 CNS,15.5 µM
same,GI50,HOP-62 NSCLC,8.63 µM
same,TGI,HOP-62 NSCLC,24.5 µM
same,GI50,OVCAR-3 ovarian,1.36 µM
same,TGI,OVCAR-3 ovarian,5.31 µM
same,GI50,SK-MEL-5 melanoma,1.75 µM
same,TGI,SK-MEL-5 melanoma,3.28 µM
same,GI50,OVCAR-5 ovarian,2.62 µM
same,TGI,OVCAR-5 ovarian,6.48 µM
same,GI50,NCI-H522 lung,0.219 µM
same,TGI,NCI-H522 lung,0.58 µM
same,GI50,DU-145 prostate,2.27 µM
same,TGI,DU-145 prostate,7.28 µM
same,GI50,SN12C renal,2.55 µM
same,TGI,SN12C renal,11.7 µM
same,GI50,MOLT-4 leukemia,1.97 µM
same,TGI,MOLT-4 leukemia,> 100 µM
same,GI50,UACC-257 melanoma,2.43 µM
same,TGI,UACC-257 melanoma,7.82 µM
same,GI50,HL-60(TB) leukemia,1.42 µM
same,TGI,HL-60(TB) leukemia,16.1 µM
same,GI50,SR leukemia,1.36 µM
same,TGI,SR leukemia,> 100 µM
same,GI50,MCF7 breast,1.2 µM
same,TGI,MCF7 breast,14.4 µM
same,GI50,HCT-116 colon,1.82 µM
same,TGI,HCT-116 colon,4.13 µM
same,GI50,T-47D breast,2.64 µM
same,TGI,T-47D breast,15.2 µM
same,GI50,ACHN renal,1.84 µM
same,TGI,ACHN renal,3.97 µM
same,GI50,EKVX NSCLC,3.26 µM
same,TGI,EKVX NSCLC,12.2 µM
same,GI50,SNB-75 CNS,3.72 µM
same,TGI,SNB-75 CNS,18.3 µM
same,GI50,HS 578T breast,5.3 µM
same,TGI,HS 578T breast,36.8 µM
